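1) Cells in 96-well plates. 2) Compound, 48 h, 5 concentrations. 3) Linear interpolation between surrounding doses. 4) Unreached endpoint = highest concentration. GI50 marks 50% less growth.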 The source made the active and inactive calls. Rule as the data show it: active = GI50 up to about 1.1 µM and inactive = higher.
Experiments:
Experiment in all cases: NCI anticancer screen, dose series, 48 h
[1] = test system: UACC-257
[2] = test system: TK-10
[3] = test system: SK-OV-3
[4] = test system: MDA-MB-231
[5] = test system: T47D
[6] = test system: NCI/ADR-RES
[7] = test system: HCT-15
[8] = test system: Hs-578T
[9] = test system: SF-539
[10] = test system: SNB-75
[11] = test system: A549
[12] = test system: Malme-3M
[13] = test system: ACHN
[14] = test system: SN12C
[15] = test system: CCRF-CEM
[16] = test system: SK-MEL-28
[17] = test system: A498
[18] = test system: KM12
[19] = test system: UACC-62
[20] = test system: DMS-114

With `CNC(=O)OCC1=C(COC(=O)NC)CN(c2ccc(OC)cc2)C1` the GI50 [1] was > 100 µM (inactive), the GI50 [2] was 85.7 µM (inactive) and the GI50 [3] was > 100 µM (inactive). The GI50 [4] was > 100 µM (inactive), the GI50 [5] was > 100 µM (inactive) and the GI50 [6] was > 100 µM (inactive). For the same compound, the GI50 [7] was greater than 100 µM, the GI50 [8] was > 100 µM (inactive) and the GI50 [9] was > 100 µM (inactive). For the same compound, the GI50 [10] was > 100 µM (inactive), the GI50 [11] was > 100 µM (inactive) and the GI50 [12] was > 100 µM (inactive). For the same compound, the GI50 [13] was > 100 µM (inactive), the GI50 [14] was > 100 µM (inactive) and the GI50 [15] was > 100 µM (inactive). The GI50 [16] was > 100 µM (inactive), the GI50 [17] was 1.9 µM (inactive) and the GI50 [18] was > 100 µM (inactive). For the same compound, the GI50 [19] was > 100 µM (inactive).
In the case of `COc1ccc2c(c1)N1CCc3cc(OC)c(OC)cc3C1C2` (stereo not given), the GI50 [1] is reported as 57.9 µM (inactive), the GI50 [2] is reported as > 100 µM (inactive) and the GI50 [3] is reported as > 100 µM (inactive). The GI50 [20] was 37.6 µM (inactive), the GI50 [9] was > 100 µM (inactive) and the GI50 [11] was 47.8 µM (inactive). The GI50 [12] was 30.5 µM (inactive), the GI50 [13] was 53 µM (inactive) and the GI50 [14] was 51.9 µM (inactive). The GI50 [15] was 61 µM (inactive), the GI50 [16] was 89.1 µM (inactive) and the GI50 [17] was 41.4 µM (inactive). The GI50 [18] was 89.1 µM (inactive) and the GI50 [19] was 23.6 µM (inactive).
In the case of `O=[N+]([O-])C=C(c1ccc(Cl)cc1)c1ccc(Cl)cc1`, the GI50 [1] is reported as 20.8 µM (inactive), the GI50 [2] is reported as 19.4 µM (inactive) and the GI50 [7] is reported as 17.2 µM. For the same compound, the GI50 [20] was 15.2 µM (inactive), the GI50 [9] was 17 µM (inactive) and the GI50 [10] was 21.7 µM (inactive). The GI50 [11] was 19.7 µM (inactive), the GI50 [13] was 16.7 µM (inactive) and the GI50 [14] was 19.5 µM (inactive). The GI50 [15] was 22 µM (inactive), the GI50 [16] was 16.8 µM (inactive) and the GI50 [17] was 20 µM (inactive). The GI50 [18] was 14.6 µM (inactive).
For `O=c1[nH]c(=O)n(C2CC(O)C(CO)O2)cc1C#Cc1ccc(F)cc1` (stereo not given), the GI50 [1] was > 100 µM (inactive), the GI50 [3] was > 100 µM (inactive) and the GI50 [7] was greater than 100 µM. For the same compound, the GI50 [20] was > 100 µM (inactive), the GI50 [9] was > 100 µM (inactive) and the GI50 [10] was > 100 µM (inactive). For the same compound, the GI50 [11] was > 100 µM (inactive), the GI50 [12] was > 100 µM (inactive) and the GI50 [13] was > 100 µM (inactive). The GI50 [14] was > 100 µM (inactive), the GI50 [15] was > 100 µM (inactive) and the GI50 [16] was > 100 µM (inactive). The GI50 [18] was > 100 µM (inactive) and the GI50 [19] was > 100 µM (inactive).

— ChEMBL document CHEMBL1201862, “PubChem BioAssay data set” (2004)
